Results from publication PMC5785531, “Pharmacokinetic parameters explain the therapeutic activity of antimicrobial agents in a silkworm infection model” (Scientific Reports, 2018).
In brackets after ≈: the same amount, converted by molar mass.

Tests used:
[1] = system: Streptococcus pyogenes SSI-9; assay: MIC by broth microdilution assay; format: cell-based; settings: SSI9, MHB with 2.5% lysed horse blood, 24 h, median of three experiments
Protocol: Antimicrobial activity was assessed by determining the MIC by broth dilution assay according to our previous reports[21],[35],[36] as per the Clinical and Laboratory Standards Institute[37]. Briefly, serial dilutions of compound 5, compound 7, and positive controls were prepared in cation-adjusted Mueller-Hinton Broth (MHB, Difco, Franklin Lakes, NJ, USA), 100 µl of which was dispensed into each well of a round-bottomed 96-well plate. The final concentrations in the well ranged from 128 µg/ml to 0.0625 µg/ml. Bacteria were grown at 37 °C overnight on either Luria Bertani (tryptone 10 g/l, yeast extract 5 g/l, NaCl 10 g/l) or Tryptic Soy Broth (TSB, Difco) agar plates or sheep blood agar plates (Eiken Chemical Co. Ltd., Tokyo, Japan). Bacterial inoculum was prepared by direct suspension of the colonies in 0.9% saline, and adjusted to obtain a turbidity equivalent to a 0.5 McFarland standard using a spectrophotometer UV-1280 (Shimadzu Corp., Kyoto, Japan). The suspension was then diluted 1:20 in cation-adjusted MHB (Difco), and 10 µl of it was inoculated into each well of previously prepared 96-well plates containing compounds to […] […] Vancomycin (Wako Pure Chemicals) or norfloxacin (Sigma Aldrich, St Louis, MO, USA) were used as positive controls. Each plate contained a growth control well and a vehicle control well. The MIC was determined as the minimum concentration that inhibited the growth of the bacteria.

[2] = Metabolism in pooled human liver S9 fractions; format: in vitro ADME; settings: 40 µg/ml compound; pooled human liver S9, NADPH, 37 °C; 10, 20, 30 min; HPLC
Protocol: Metabolism of the compounds was determined according to Yang et al.[38] with slight modifications. Briefly, reaction mixture containing 5 mM MgCl2, 2 mM NADPH, 20 µg/ml pooled human liver S9 fractions (Sekisui Xenotech, KS, USA) in 0.05 M Tris-HCl buffer (pH 7.4) was pre-incubated at 37 °C for 5 min. The reaction was initiated by the addition of 40 µg/ml compound 5 or compound 7 and incubation was continued. Aliquots (100 µl) were collected at 10, 20, and 30 min, and an equal volume of acetonitrile was added. The resulting mixture was analyzed by HPLC equipped with a Waters 2998 Photodiode Array Detector and a Waters 2707 Autosampler using a Senshu-Pak Pegasil ODS-SP-100 column (4.6 Ø × 250 mm) with gradient elution of 50–100% acetonitrile for 30 min at the flow rate of 1 ml/min. Statistical analysis was performed using Prism 5 for Mac OS X, version 5.0 f (GraphPad Software).

SMILES | MIC [1] [µg/mL] | metabolism by human liver S9 fractions [2]
O=C(OCc1cc(Cl)cc(Cl)c1)c1ccc([N+](=O)[O-])s1 [compound 5] | 8 (≈ 24.1 µM) | slowly metabolized compared with compound 7
O=C(OCc1ccccc1)c1ccc([N+](=O)[O-])s1 [compound 7] | 16 (≈ 60.8 µM) | –
